These are literature values, as cited in US8507698B2, “Artemisinin derivatives for the treatment of melanoma” (Lachifarma S.R.L. Laboratorio Chimico Farmaceutico Salentino, priority 2007, dated 2013).

The series concerns cell line of oral cancer (YD-10B). To be noted: read-out: CI50 (the source's name).

For the compound `CC(=O)O[C@H]1C(=O)[C@@]2(C)[C@H]([C@H](OC(=O)c3ccccc3)[C@]3(O)C[C@H](OC(=O)[C@H](O)[C@@H](NC(=O)c4ccccc4)c4ccccc4)C(C)=C1C3(C)C)[C@]1(OC(C)=O)CO[C@@H]1C[C@@H]2O` [paclitaxel], the IC50 was 13.1 µM.
